Earlier results, collected in patent US20200397820A1, “Glycerol Release Promoter” (KOHAKU BIO TECHNOLOGY CO., LTD., priority 2018, published 2020).

Test system: cultured adipocytes
Conditions: Patent Literature 10

## C[C@@]12C[C@@]3(O)O[C@@H](O1)[C@]1(COC(=O)c4ccccc4)[C@H]3C[C@@]12O[C@@H]1O[C@H](CO)[C@@H](O)[C@H](O)[C@H]1O [Paeoniflorin]
  release of glycerol into the culture medium: promotes the release of glycerol
